# Laboratory results as given in US20220324865A1 (Bayer Aktiengesellschaft, priority 2018, published 2022).
# Target: T1, human EP3 receptor (Homo sapiens, UniProt P43115)
# T1 construct: expressed in transfected cells; host or cells: CHO K1 (Chinese Hamster Ovary), stably co-transfected with Galpha16 and mitochondrial clytin
# T1 sequence (P43115 1-390): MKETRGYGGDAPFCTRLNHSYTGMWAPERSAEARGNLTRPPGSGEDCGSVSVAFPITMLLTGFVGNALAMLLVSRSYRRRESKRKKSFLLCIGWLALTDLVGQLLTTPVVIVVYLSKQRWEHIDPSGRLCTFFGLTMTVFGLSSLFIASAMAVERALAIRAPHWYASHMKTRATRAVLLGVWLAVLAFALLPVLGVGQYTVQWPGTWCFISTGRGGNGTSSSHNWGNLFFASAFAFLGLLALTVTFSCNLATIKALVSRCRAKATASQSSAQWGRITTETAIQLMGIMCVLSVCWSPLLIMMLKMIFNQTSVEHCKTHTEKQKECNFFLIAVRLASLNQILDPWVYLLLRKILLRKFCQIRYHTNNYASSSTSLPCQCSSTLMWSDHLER
# Experiment: Cellular in vitro assay for determining EP3 receptor activity (human EP3 cell line, sulprostone-stimulated calcium luminescence)
# Format: cell-based
# Settings: CHO cells expressing human EP3 and mitochondrial Clytin; antagonist mode, sulprostone at EC50; read-out: EP3 CHO mtCLY ANTAG IC50
# Method in brief: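 Antagonist activity was measured as inhibition of the luminescent calcium signal elicited by EC50 sulprostone, following 10 min compound pretreatment. The cell line was recombinant CHO K1 co-expressing human EP3, Gα16 and the photoprotein Clytin, reconstituted with coelenterazine.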
row,Compound,IC50 [nM]
1,"CN1CC(NC(=O)c2nn3cc(-c4ccc5ccccc5c4)[nH]c(=O)c3c2C(F)(F)F)(c2ccc(F)cc2)C1 [Example 1-32, N-[3-(4-Fluorophenyl)-1-methylazetidin-3-yl]-6-(naphthalen-2-yl)-4-oxo-3-(trifluoromethyl)-4,5-dihydropyrazolo[1,5-a]pyrazine-2-carboxamide]",1.6
2,CC(C)(O)[C@@H](NC(=O)c1nn2cc(-c3ccc(Cl)c(Cl)c3)[nH]c(=O)c2c1C1CC(F)(F)C1)c1ccc(F)cc1 [6-552],2.55
3,Cc1cc(-c2cn3nc(C(=O)NC4CC(F)(F)C4)c(C(F)(F)F)c3c(=O)[nH]2)ccc1Cl [6-225],7.4
4,"Cc1cc(-c2cn3nc(C(=O)NCC(O)C(F)(F)F)c(C4CC4)c3c(=O)[nH]2)ccc1Cl (single isomer, unassigned) [6-314]",0.85
5,O=C(NC1(c2ccc(F)cc2)CC1)c1cc2c(=O)[nH]c(-c3ccc4ccccc4c3)cn2n1 [6-18],1.75
6,Cc1ncc(-c2cn3nc(C(=O)N[C@@H](c4ccc(F)cc4)C(C)(C)O)c(C4CC4)c3c(=O)[nH]2)cc1Cl [6-579],0.86
7,CN1CC(NC(=O)c2nn3cc(-c4ccc5c(c4)OCCO5)[nH]c(=O)c3c2C2CC2)(c2ccc(F)cc2)C1 [6-467],2.35
8,"Cc1ccc(-c2cn3nc(C(=O)N[C@@H](CCO)c4ccc(F)cc4)c(C#N)c3c(=O)[nH]2)cc1C [Example 1-75, 3-Cyano-6-(3,4-dimethylphenyl)-N-[(1S)-1-(4-fluorophenyl)-3-hydroxpropyl]-4-oxo-4,5-dihydropyrazolo[1,5-a]pyrazine-2-carboxamide]",8.75
9,C[C@H](NC(=O)c1nn2cc(-c3ccc(Cl)c(Cl)c3)[nH]c(=O)c2c1C1CC(F)(F)C1)C1CC1 [6-553],2.8

# Continued, values first:
row,IC50 [nM],Compound
1,4.45,"Cc1nn(C)c(C)c1C(C)NC(=O)c1cc2c(=O)[nH]c(-c3ccc4ccccc4c3)cn2n1 (stereo not shown) [Example 2-21, 6-(2-Naphthyl)-4-oxo-N-[1-(1,3,5-trimethyl-1H-pyrazol-4-yl)ethyl]-4,5-dihydropyrazolo[1,5-a]pyrazine-2-carboxamide]"
2,3,"CCN(CCO)CC(NC(=O)c1cc2c(=O)[nH]c(-c3ccc(C)c(C)c3)cn2n1)c1ccccc1 (stereo not shown) [Example 1-85, 6-(3,4-Dimethylphenyl)-N-[2-[ethyl(2-hydroxyethyl)amino]-1-phenylethyl]-4-oxo-5H-pyrazolo-[1,5-a]pyrazine-2-carboxamide]"
3,4.85,"Cc1c(C(=O)NC(C)c2cccc(Br)c2)nn2c(C)c(-c3ccc4ccccc4c3)[nH]c(=O)c12 (stereo not shown) [Example 3-24, N-[1-(3-Bromophenyl)ethyl]-3,7-dimethyl-6-(2-naphthyl)-4-oxo-5H-pyrazolo[1,5-a]pyrazine-2-carboxamide]"
4,1.67,"CCN1CC(NC(=O)c2nn3cc(-c4ccc(C)c(C)c4)[nH]c(=O)c3c2C(F)(F)F)(c2ccc(F)cc2)C1 [Example 1-176, 6-(3,4-Dimethylphenyl)-N-[1-ethyl-3-(4-fluorophenyl)azetidin-3-yl]-4-oxo-3-(trifluoromethyl)-4,5-dihydropyrazolo[1,5-a]pyrazine-2-carboxamide]"
5,1.75,"Cc1cccc2ncc(-c3cn4nc(C(=O)NC(CN(C)C)c5ccccc5)c(C(C)C)c4c(=O)[nH]3)cc12 (stereo not shown) [Example 4-1, N-[2-(Dimethylamino)-1-phenylethyl]-3-isopropyl-6-(5-methyl-3-quinolyl)-4-oxo-5H-pyrazolo[1,5-a]pyrazine-2-carboxamide]"
6,2.2,"CC(C)(C)OC(=O)N1CC(C(NC(=O)c2cc3c(=O)[nH]c(-c4ccc5ccccc5c4)cn3n2)c2ccc(F)cc2)C1 (racemic) [Example 1-157, tert-Butyl 3-[(4-fluorophenyl)-[[6-(2-naphthyl)-4-oxo-5H-pyrazolo[1,5-a]pyrazine-2-carbonyl]amino]-methyl]azetidine-1-carboxylate (Racemate)]"
7,1.2,"Cc1c(C(=O)N[C@H](CO)c2ccccc2)nn2c(C)c(-c3ccc4ccccc4c3)[nH]c(=O)c12 [Example 3-2, N-[(1S)-2-Hydroxy-1-phenylethyl]-3,7-dimethyl-6-(naphthalen-2-yl)-4-oxo-4,5-dihydropyrazolo[1,5-a]pyrazine-2-carboxamide]"
